Test results from US6605589B1, “Cathepsin inhibitors in cancer treatment” (Parker Hughes Institute, priority 2000, dated 2003).
Residues, ends and D or L forms follow the SMILES beside them. *: point of attachment. Cbz = O=C(OCc1ccccc1)*; CH2F = FC*

Test system: SQ-20B, BT-20, U373, HeLa and NCI-H520 cells
Test: CATI-1 induced apoptosis in presence of caspase inhibitor I (flow cytometry)
Assay type: cell-based, human
Details: 50 μM caspase inhibitor I with 50 μM CATI-1, 24 hours; any cell line tested
Procedure: The percentages indicate the fraction of cells at an early stage of apoptosis (lower right quadrant), as measured by single MC540 fluorescence, and the fraction of cells at an advanced stage of apoptosis (upper right quadrant).
Quantitative flow cytometric apoptosis detection assays were performed on BT-20 (breast cancer), PC-3 (prostate cancer), U373 (glioblastoma), SQ20B (squamous cell carcinoma), HeLa (cervix cancer), and DU145 (prostate cancer). Just prior to the assay, one mg/ml stock solutions of MC540 (Sigma, St. Louis, Mo.) and PI (Sigma, St. Louis, Mo.) were filtered through a 0.22 μm filter and stored at 4° C. in the dark. […] Stained cells were analyzed with a FACStar Plus flow cytometer (Becton Dickinson, San Jose, Calif.) using the 488-nm excitation from an argon laser. […] In each experiment approximately 10,000 cells were analyzed by FACS and the percentage of cells at early (MC540 fluorescence only) and advanced (dual MC540 plus PI fluorescence) stages of apoptosis obtained.
Human cancer cell lines were treated with 50 μM CATI-1 in the presence and absence of 50 μM caspase inhibitor I (Z-Val-Ala-Asp(Ome)-CH2F) (Calbiochem, La Jolla, Calif.) for 24 hours to determine whether caspases were required for cathepsin inhibitor activity. […] Quantitative flow cytometric apoptosis detection assays were performed on treated cells as previously discussed in Example II.

COC(=O)C[C@H](NC(=O)[C@H](C)NC(=O)[C@@H](NC(=O)OCc1ccccc1)C(C)C)C(=O)CF [caspase inhibitor I, Z-Val-Ala-Asp(Ome)-CH2F] (Cbz-Val-Ala-Asp(OMe)-CH2F)
impact on CATI-1 induced apoptosis: no detectable impact
